One series has as its target T1, hGIPR (Homo sapiens, UniProt P48546).
T1 construct: expressed in transfected cells; host or cells: CHO CRE-luciferase reporter cells
T1 sequence (P48546 22-466): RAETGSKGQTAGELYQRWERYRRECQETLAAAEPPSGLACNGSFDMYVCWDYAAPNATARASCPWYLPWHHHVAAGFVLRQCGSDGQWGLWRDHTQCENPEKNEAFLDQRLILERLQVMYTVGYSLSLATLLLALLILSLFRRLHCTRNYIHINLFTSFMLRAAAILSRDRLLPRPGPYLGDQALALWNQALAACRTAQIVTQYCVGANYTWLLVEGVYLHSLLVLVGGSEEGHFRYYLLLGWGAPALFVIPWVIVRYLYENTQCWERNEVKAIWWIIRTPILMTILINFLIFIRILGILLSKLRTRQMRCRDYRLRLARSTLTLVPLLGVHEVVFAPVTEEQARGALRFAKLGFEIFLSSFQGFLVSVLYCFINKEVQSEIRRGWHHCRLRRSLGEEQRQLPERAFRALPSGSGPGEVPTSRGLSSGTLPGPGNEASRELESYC
The series is described as follows: hGIPR CreLuc assay in 0.5% and 100% plasma (CHO CRE-luciferase reporter cells). The series is classed as cell-based. The conditions noted are these: 0.5% human plasma, read-out: hGIPR 0.5% hP. (Reporter assays use an easily measured gene product as a stand-in for the process of interest.)

Series [1] in a line: Solubility in 0.1 M phosphate buffer at pH 7. The settings on record: 0.1 M phosphate buffer at pH 7, 10 mg/mL final peptide concentration, shaking 2 hours at room temperature, peptides as TFA-salts; measured sample pH 6.5-7.0. The series is classed as physicochemical.
A further series has as its target T2, hNPY2R (Homo sapiens, UniProt P49146).
T2 construct: expressed in transfected cells; host or cells: HEK-293 CRE-luciferase reporter cells
T2 sequence (P49146 1-381): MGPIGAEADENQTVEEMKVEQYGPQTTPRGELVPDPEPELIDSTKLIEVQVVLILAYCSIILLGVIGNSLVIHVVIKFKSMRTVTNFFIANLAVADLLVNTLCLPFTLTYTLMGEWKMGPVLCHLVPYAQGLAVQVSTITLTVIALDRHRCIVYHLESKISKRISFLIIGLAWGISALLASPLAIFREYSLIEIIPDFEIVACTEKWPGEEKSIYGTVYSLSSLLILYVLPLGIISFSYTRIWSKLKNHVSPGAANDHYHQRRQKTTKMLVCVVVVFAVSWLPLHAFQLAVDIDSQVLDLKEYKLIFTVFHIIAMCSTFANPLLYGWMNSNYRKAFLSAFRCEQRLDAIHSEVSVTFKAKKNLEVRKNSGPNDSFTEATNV
The series is described as follows: hNPY2R CreLuc assay in 0.5% and 100% plasma (HEK-293 CRE-luciferase reporter cells). It counts as cell-based. The conditions noted are these: HEK-293 reporter cells. The source says: CHO and HEK-293 recombinant cell lines express a luciferase reporter gene under control of the CAMP responsive element (CRE). As a second recombinant protein the GLP-1 and NPY2 receptors were expressed in the reporter gene HEK cells, and the GIP receptor was expressed in the reporter gene CHO cells, respectively. Stimulation of these recombinant cells with an agonist leads to an increase of intracellular CAMP levels. In the presence of CAMP, the transcription factor CRE binding protein (CREB) binds to the CRE and to the CREB binding protein (CBP), which leads to transcription of the luciferase reporter gene. Peptides upon serial-dilution in 100% DMSO were transferred into 384-well assay plates with 5 μl pre-dispensed assay buffer (1×HBSS, 20 mM HEPES, pH7.4 supplemented with 0.5% human plasma) using acoustic dispensing on a Labcyte ECHO. Cryo-preserved transgenic reporter gene cells were thawed in assay buffer. 20 μl (10.000 cells/well) were added to the plate with the peptides and incubated for 4 hours at 37° C. in a humidified incubator. Following incubation, assay plates are equilibrated to room temperature, followed by addition of 25 μl of Bright-Glo™ Luciferase reagent, incubation at room temperature for 10 minutes and analysis of luminescence (Envision Reader). […] EC50 values were calculated by non-linear regression using sigmoid concentration-response with variable slope.
The same assays were run in the presence of 100% plasma with no additional buffer constituents.

Setting [2] is: 100% human plasma, read-out: hNPY2R 100% hP.

Like-named read-outs stand apart in the source and are kept apart here.

A word on the solubility: it is the dissolved amount per volume that the medium holds. For the compound `CC[C@H](C)[C@H](NC(=O)[C@H](CC(C)C)NC(=O)[C@H](Cc1c[nH]cn1)NC(=O)[C@H](CCCNC(=N)N)NC(=O)[C@@H](NC(=O)[C@H](Cc1ccccc1)NC(=O)[C@H](CCC(=O)O)NC(=O)C(C)(C)NC(=O)[C@H](CCC(N)=O)NC(=O)[C@H](C)NC(=O)[C@H](CCC(N)=O)NC(=O)[C@H](CCCCN)NC(=O)[C@H](CCC(=O)O)NC(=O)[C@H](CC(C)C)NC(=O)C(C)(C)NC(=O)[C@@H](NC(=O)[C@H](CO)NC(=O)[C@H](Cc1ccc(O)cc1)NC(=O)[C@H](CC(=O)O)NC(=O)[C@H](CO)NC(=O)[C@@H](NC(=O)[C@H](Cc1ccccc1)NC(=O)[C@@H](NC(=O)CNC(=O)[C@H](CCC(=O)O)NC(=O)C(C)(C)NC(=O)[C@@H](N)Cc1ccc(O)cc1)[C@@H](C)O)[C@@H](C)O)[C@@H](C)CC)C(C)C)C(=O)N[C@@H](CC(N)=O)C(=O)N[C@@H](CCCCNC(=O)[C@@H](N)CCCCNC(=O)[C@H](CCC(=O)O)NC(=O)CC[C@H](NC(=O)CC[C@H](NC(=O)CC[C@H](NC(=O)CC[C@H](NC(=O)CC[C@H](NC(=O)CC[C@H](NC(=O)CCCCCCCCCCCCCCCCC(=O)O)C(=O)O)C(=O)O)C(=O)O)C(=O)O)C(=O)O)C(=O)O)C(=O)N[C@@H](CC(C)C)C(=O)N[C@H](C(=O)N[C@@H](CCCNC(=N)N)C(=O)N[C@@H](CCC(N)=O)C(=O)N[C@@H](CCCNC(=N)N)C(=O)N[C@@H](Cc1ccc(O)cc1)C(N)=O)[C@@H](C)O` [Compound 32, Y-Aib-E-G-T-F-T-S-D-Y-S-I-Aib-L-E-K-Q-A-Q-Aib-E-F-V-R-H-L-I-N-K(1,3)-L-T-R-Q-R-Y-NH2.C18DA-gGlu-gGlu-gGlu-gGlu-gGlu-gGlu-Glu-eLys(1,2)], the EC50 at hGIPR came out at 0.5 nM; at hNPY2R (0.5% human plasma, read-out: hNPY2R 0.5% hP), 17.1 nM. The solubility at 2 h in series [1] was determined as 9100 µg/mL.
With `CC[C@H](C)[C@H](NC(=O)[C@H](CC(C)C)NC(=O)[C@H](Cc1c[nH]cn1)NC(=O)[C@H](CCCNC(=N)N)NC(=O)[C@@H](NC(=O)[C@H](Cc1ccccc1)NC(=O)[C@H](C)NC(=O)C(C)(C)NC(=O)[C@H](CCC(N)=O)NC(=O)[C@H](C)NC(=O)[C@H](CCC(N)=O)NC(=O)[C@H](CCCCN)NC(=O)[C@H](CCC(=O)O)NC(=O)[C@H](CC(C)C)NC(=O)C(C)(C)NC(=O)[C@@H](NC(=O)[C@H](CO)NC(=O)[C@H](Cc1ccc(O)cc1)NC(=O)[C@H](CC(=O)O)NC(=O)[C@H](CO)NC(=O)[C@@H](NC(=O)[C@H](Cc1ccccc1)NC(=O)[C@@H](NC(=O)CNC(=O)[C@H](CCC(=O)O)NC(=O)C(C)(C)NC(=O)[C@@H](N)Cc1ccc(O)cc1)[C@@H](C)O)[C@@H](C)O)[C@@H](C)CC)C(C)C)C(=O)N[C@@H](CC(N)=O)C(=O)N[C@@H](CCCCNC(=O)CC[C@H](NC(=O)CC[C@H](NC(=O)CC[C@H](NC(=O)CC[C@H](NC(=O)CC[C@H](NC(=O)CC[C@H](NC(=O)CC[C@H](NC(=O)CCCCCCCCCCCCCCCCC(=O)O)C(=O)O)C(=O)O)C(=O)O)C(=O)O)C(=O)O)C(=O)O)C(=O)O)C(=O)NC(C)(C)C(=O)N[C@H](C(=O)N[C@@H](CCCNC(=N)N)C(=O)N[C@@H](CCC(N)=O)C(=O)N[C@@H](CCCNC(=N)N)C(=O)N[C@@H](Cc1ccc(O)cc1)C(N)=O)[C@@H](C)O` [Compound 38, Y-Aib-E-G-T-F-T-S-D-Y-S-I-Aib-L-E-K-Q-A-Q-Aib-A-F-V-R-H-L-I-N-K(1,3)-Aib-T-R-Q-R-Y-NH2.C18DA-gGlu-gGlu-gGlu-gGlu-gGlu-gGlu-gGlu(1,2)], the EC50 worked out at 0.6 nM at hGIPR and 141 nM on hNPY2R (setting [2]). Besides, the solubility at 2 h in series [1] is 4300 µg/mL.
For `CC[C@H](C)[C@H](NC(=O)[C@H](CC(C)C)NC(=O)[C@H](Cc1c[nH]cn1)NC(=O)[C@H](CCCNC(=N)N)NC(=O)[C@@H](NC(=O)[C@H](Cc1ccccc1)NC(=O)[C@H](CCC(=O)O)NC(=O)C(C)(C)NC(=O)[C@H](CCC(N)=O)NC(=O)[C@H](C)NC(=O)[C@H](CCC(N)=O)NC(=O)[C@H](CCCCN)NC(=O)[C@H](CCC(=O)O)NC(=O)[C@H](CC(C)C)NC(=O)C(C)(C)NC(=O)[C@@H](NC(=O)[C@H](CO)NC(=O)[C@H](Cc1ccc(O)cc1)NC(=O)[C@H](CC(=O)O)NC(=O)[C@H](CO)NC(=O)[C@@H](NC(=O)[C@H](Cc1ccccc1)NC(=O)[C@@H](NC(=O)CNC(=O)[C@H](CCC(=O)O)NC(=O)C(C)(C)NC(=O)[C@@H](N)Cc1ccc(O)cc1)[C@@H](C)O)[C@@H](C)O)[C@@H](C)CC)C(C)C)C(=O)N[C@@H](CC(N)=O)C(=O)N[C@@H](CCCCNC(=O)[C@@H](N)CCCCNC(=O)CC[C@H](NC(=O)CC[C@H](NC(=O)CC[C@H](NC(=O)CC[C@H](NC(=O)CC[C@H](NC(=O)CC[C@H](NC(=O)CCCCCCCCCCCCCCCCCCC(=O)O)C(=O)O)C(=O)O)C(=O)O)C(=O)O)C(=O)O)C(=O)O)C(=O)N[C@@H](CC(C)C)C(=O)N[C@H](C(=O)N[C@@H](CCCNC(=N)N)C(=O)N[C@@H](CCC(N)=O)C(=O)N[C@@H](CCCNC(=N)N)C(=O)N[C@@H](Cc1ccc(O)cc1)C(N)=O)[C@@H](C)O` [Compound 39, Y-Aib-E-G-T-F-T-S-D-Y-S-I-Aib-L-E-K-Q-A-Q-Aib-E-F-V-R-H-L-I-N-K(1,3)-L-T-R-Q-R-Y-NH2.C20DA-gGlu-gGlu-gGlu-gGlu-gGlu-gGlu-eLys(1,2)], the EC50 at hGIPR was found to be 0.9 nM; at hNPY2R (setting [2]) it was 119 nM. Besides, in series [1], the solubility at 2 h worked out at 4500 µg/mL.
Taken in the same sequence, the figures for `CC[C@H](C)[C@H](NC(=O)[C@H](CC(C)C)NC(=O)[C@H](Cc1c[nH]cn1)NC(=O)[C@H](CCCNC(=N)N)NC(=O)[C@@H](NC(=O)[C@H](Cc1ccccc1)NC(=O)[C@H](C)NC(=O)C(C)(C)NC(=O)[C@H](CCC(N)=O)NC(=O)[C@H](C)NC(=O)[C@H](CCC(N)=O)NC(=O)[C@H](CCCCN)NC(=O)[C@H](CCC(=O)O)NC(=O)[C@H](CC(C)C)NC(=O)C(C)(C)NC(=O)[C@@H](NC(=O)[C@H](CO)NC(=O)[C@H](Cc1ccc(O)cc1)NC(=O)[C@H](CC(=O)O)NC(=O)[C@H](CO)NC(=O)[C@@H](NC(=O)[C@H](Cc1ccccc1)NC(=O)[C@@H](NC(=O)CNC(=O)[C@H](CCC(=O)O)NC(=O)C(C)(C)NC(=O)[C@@H](N)Cc1ccc(O)cc1)[C@@H](C)O)[C@@H](C)O)[C@@H](C)CC)C(C)C)C(=O)N[C@@H](CC(N)=O)C(=O)N[C@@H](CCCCNC(=O)COCCOCCNC(=O)CC[C@H](NC(=O)CC[C@H](NC(=O)CC[C@H](NC(=O)CC[C@H](NC(=O)CC[C@H](NC(=O)CC[C@H](NC(=O)CCCCCCCCCCCCCCCCCCC(=O)O)C(=O)O)C(=O)O)C(=O)O)C(=O)O)C(=O)O)C(=O)O)C(=O)NC(C)(C)C(=O)N[C@H](C(=O)N[C@@H](CCCNC(=N)N)C(=O)N[C@@H](CCC(N)=O)C(=O)N[C@@H](CCCNC(=N)N)C(=O)N[C@@H](Cc1ccc(O)cc1)C(N)=O)[C@@H](C)O` [Compound 99, Y-Aib-E-G-T-F-T-S-D-Y-S-I-Aib-L-E-K-Q-A-Q-Aib-A-F-V-R-H-L-I-N-K(1,3)-Aib-T-R-Q-R-Y-NH2.C20DA-gGlu-gGlu-gGlu-gGlu-gGlu-gGlu-OEG(1,2)] were 0.5 nM, 125 nM and 10000 µg/mL.

Source of the values: patent US20250382344A1, “Soluble GLP1/GIP/NPY2 Receptor Triple Agonists” (Boehringer Ingelheim International GmH, priority 2024, published 2025).
